Reference: patent US12679878B2, “CRF2 receptor agonists and their use in therapy” (SANOFI, priority 2020, dated 2026)
In brackets after ≈: the same amount, converted by molar mass. Values belong to the compound of their own block, whether it stands above or below them. Starred links: 1 amine or outer side, 2 acyl side, 3 side chain; linkers in the order of their positions; H or OH if unused. Non-standard residues stand in square brackets, D forms with d. Residues, ends and D or L forms follow the SMILES beside them. Groups on a side chain read outwards from the residue. *: point of attachment. C16 diacid = O=C(O)CCCCCCCCCCCCCCC(=O)*; γGlu = O=C(O)[C@H](CCC(=O)[*:2])N[*:1]; Palmitoyl = CCCCCCCCCCCCCCCC(=O)*; Aib = CC(C)(N)C(=O)O

Experiments:
[1] = molecular target: T1, CRF2R (Homo sapiens, UniProt Q13324); assay: EC50 [nM] CRF2R
T1 construct: expressed in transfected cells; host or cells: TeloHEAC
Excerpt: Table printed on a drawing sheet, Fig. 3
Head of the field: EC50 [nM] CRF2R
The patent's description of the figure: FIG. 3: Representative sequences from peptides according to the invention with an optimized stability profile, wherein K[sema] stands for K[gGlu-C(O)(CH2)14CH3]
First copying reader's note: Second half (positions 13-38, C-term and activity) of the first table; the rows follow the same order, so the four rows of Peptide Seq. 1 are Patent Sequence N° 130, 171, 172 and 173.
Where the first naming reader finds the target: head: EC50 [nM] CRF2R

[2] = Buffer solubility by LC-UV, pH 7.4 phosphate and pH 4.5 acetate (Example 19.11); type: physicochemical; conditions: target 10 mg/mL
Method: (§1) As for example 15 above, also the chemical stability of representative examples of these FA modified peptides has been assessed, using LC-UV instead of light scattering. Solubility and chemical stability were studied in 100 mM phosphate buffer (pH 7.4) and 100 mM acetate buffer (pH 4.5). Test compound powders were dissolved in both buffers at a target concentration of 10 mg/mL and incubated for 1 hour at room temperature. After centrifugation at 2500 rcf for 15 minutes, […] of supernatant was diluted with […] of the incubation buffer and analyzed by LC-UV (Acquity UPLC-DAD, Waters). Solubility was calculated by comparing the peak area of the test compound in the buffer sample with the peak area of the same compound dissolved at 0.5 mg/ml in water:acetonitrile 1:1, 0.1% formic acid.

[3] = molecular target: T2, human CRF2α receptor (Homo sapiens, UniProt Q13324); assay: cAMP agonism at human CRF2α receptor in TeloHEAC cells, FA modified peptides (Example 19.9); type: cell-based; conditions: 0% HSA, relative to urocortin 2
T2 construct: expressed in transfected cells; host or cells: TeloHEAC
T2 sequence (Q13324 1-411): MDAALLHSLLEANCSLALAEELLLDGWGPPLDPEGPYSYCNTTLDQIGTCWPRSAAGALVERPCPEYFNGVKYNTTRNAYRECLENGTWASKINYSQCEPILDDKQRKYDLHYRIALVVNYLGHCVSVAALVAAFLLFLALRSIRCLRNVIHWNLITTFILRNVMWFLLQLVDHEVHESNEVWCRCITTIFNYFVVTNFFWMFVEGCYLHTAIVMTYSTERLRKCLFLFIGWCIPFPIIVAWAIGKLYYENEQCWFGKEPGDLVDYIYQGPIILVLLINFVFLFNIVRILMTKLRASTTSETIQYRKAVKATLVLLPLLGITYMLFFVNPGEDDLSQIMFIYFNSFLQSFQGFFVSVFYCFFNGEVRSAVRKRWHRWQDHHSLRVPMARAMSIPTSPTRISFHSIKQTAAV
Outline: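 Efficacy and EC50 are referenced to 100 nM urocortin 2 as 100%, with cAMP measured as the 665/620 nm HTRF ratio after 1 h at room temperature. Compounds (0.5 mM DMSO stock, 16 twofold dilutions) acted 30 min at 37 °C on CRF2α-expressing TeloHEAC cells, buffer containing IBMX and 0% or 0.2% HSA.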

[4] = Chemical stability as % loss by LC-UV, 28 days 40° C. vs 5° C. (Example 19.11); type: physicochemical
Method: as §1
From the centrifuged supernatant, two additional […] aliquots were collected and diluted with […] of incubation buffer. One aliquot was stored at 5° C., while the other was stored at 40° C. After 28 days, the samples were analyzed by LC-UV. Chemical stability was calculated as % loss using the following equations: • Chemical stability (as % loss)=[(purity after 28 days at 5° C.)−(purity after 28 days at 40° C.)]×100/(purity after 28 days at 5° C.) % purity=[(peak area compound)×100/(total peak area)]

[5] = molecular target: T3, CRF1R receptor (Homo sapiens, UniProt P34998); assay: cAMP activity at anti-target CRF1R, CHO-K1 cell line clone 2 (Example 19.10); type: cell-based; conditions: ratio of CRF1 EC50 to CRF2 EC50
T3 construct: host or cells: CHO-K1 clone 2
T3 sequence (P34998 24-415): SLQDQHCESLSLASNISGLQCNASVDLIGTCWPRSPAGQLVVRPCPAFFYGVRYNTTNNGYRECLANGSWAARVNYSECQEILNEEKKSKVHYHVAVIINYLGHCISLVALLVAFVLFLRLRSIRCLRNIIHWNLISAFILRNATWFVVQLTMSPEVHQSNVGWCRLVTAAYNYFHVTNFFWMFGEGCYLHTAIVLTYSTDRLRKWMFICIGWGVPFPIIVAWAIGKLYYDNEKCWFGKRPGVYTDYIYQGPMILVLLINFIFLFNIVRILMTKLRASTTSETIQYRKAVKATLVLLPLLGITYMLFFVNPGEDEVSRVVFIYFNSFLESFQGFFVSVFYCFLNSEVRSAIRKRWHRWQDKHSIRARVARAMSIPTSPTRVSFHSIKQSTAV
Outline: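 The cAMP read-out used the same protocol as the previous assay, except that Sauvagine at 100 nM set the 100% activation control. Cells were CHO-K1 clone 2 overexpressing CRF1R, cultured in F12 medium with 10% FBS and G418 and stored frozen until use.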

EC50 [1]: 0.07 nM
SMILES: CCCCCCCCCCCCCCCC(=O)N[C@@H](CCC(=O)NCCCC[C@H](NC(=O)[C@H](CC(C)C)NC(=O)[C@H](CCCCN)NC(=O)[C@@H](NC(=O)[C@@H]1CCCN1C(=O)[C@@H](NC(=O)[C@H](CC(=O)O)NC(=O)[C@H](CC(C)C)NC(=O)[C@H](CO)NC(=O)[C@H](CC(C)C)NC(=O)[C@@H](NC(=O)[C@@H](N)[C@@H](C)CC)C(C)C)C(C)C)[C@@H](C)CC)C(=O)N[C@@H](CCCCN)C(=O)N[C@H](C(=O)N[C@@H](CC(C)C)C(=O)N[C@@H](CC(C)C)C(=O)N[C@@H](CCC(=O)O)C(=O)N[C@@H](CCC(N)=O)C(=O)N[C@@H](CCC(=O)O)C(=O)N[C@@H](CCCCN)C(=O)N[C@@H](CCC(N)=O)C(=O)N[C@@H](CCC(=O)O)C(=O)N[C@@H](CCCCN)C(=O)N[C@@H](CCC(=O)O)C(=O)N[C@@H](CCCCN)C(=O)N[C@@H](CCC(N)=O)C(=O)N[C@@H](CCC(N)=O)C(=O)N[C@@H](C)C(=O)N[C@@H](CCC(=O)O)C(=O)N[C@H](C(=O)N[C@@H](CC(N)=O)C(=O)N[C@@H](C)C(=O)N[C@@H](CCC(N)=O)C(=O)N[C@H](C(=O)N[C@@H](CC(C)C)C(=O)N[C@@H](C)C(=O)N[C@@H](CCC(N)=O)C(=O)N[C@H](C(N)=O)C(C)C)[C@@H](C)CC)[C@@H](C)O)[C@@H](C)CC)C(=O)O [SEQ ID NO: 2] (H-IVLSLDVPIKLK([γGlu-Palmitoyl])KILLEQEKQEKEKQQAETNAQILAQV-NH2)

EC50 [1]: 0.04 nM
SMILES: CCCCCCCCCCCCCCCC(=O)N[C@@H](CCC(=O)NCCCC[C@H](NC(=O)[C@H](CC(C)C)NC(=O)[C@H](CCCCN)NC(=O)[C@@H](NC(=O)[C@@H]1CCCN1C(=O)[C@@H](NC(=O)[C@H](CC(=O)O)NC(=O)[C@H](CC(C)C)NC(=O)[C@H](CO)NC(=O)[C@H](CC(C)C)NC(=O)[C@@H](NC(=O)[C@@H](N)[C@@H](C)CC)C(C)C)C(C)C)[C@@H](C)CC)C(=O)N[C@@H](CCCCN)C(=O)N[C@H](C(=O)N[C@@H](CC(C)C)C(=O)N[C@@H](CC(C)C)C(=O)N[C@@H](CCC(=O)O)C(=O)N[C@@H](CCC(N)=O)C(=O)N[C@@H](CCC(=O)O)C(=O)N[C@@H](CCCCN)C(=O)N[C@@H](CCC(N)=O)C(=O)N[C@@H](CCC(=O)O)C(=O)N[C@@H](CCCCN)C(=O)N[C@@H](CCC(=O)O)C(=O)N[C@@H](CCCCN)C(=O)N[C@@H](CCC(N)=O)C(=O)N[C@@H](CCC(N)=O)C(=O)N[C@@H](C)C(=O)N[C@@H](CCC(=O)O)C(=O)N[C@@H](CCCCN)C(=O)N[C@@H](CC(N)=O)C(=O)N[C@@H](C)C(=O)N[C@@H](CCC(N)=O)C(=O)N[C@H](C(=O)N[C@@H](CC(C)C)C(=O)N[C@@H](C)C(=O)N[C@@H](CCC(N)=O)C(=O)N[C@H](C(N)=O)C(C)C)[C@@H](C)CC)[C@@H](C)CC)C(=O)O [SEQ ID NO: 3] (H-IVLSLDVPIKLK([γGlu-Palmitoyl])KILLEQEKQEKEKQQAEKNAQILAQV-NH2)

EC50 [1]: 0.05 nM
SMILES: CCCCCCCCCCCCCCCC(=O)N[C@@H](CCC(=O)NCCCC[C@H](NC(=O)[C@H](CC(C)C)NC(=O)CNC(=O)[C@@H](NC(=O)[C@@H]1CCCN1C(=O)[C@@H](NC(=O)[C@H](CC(=O)O)NC(=O)[C@H](CC(C)C)NC(=O)[C@H](CO)NC(=O)[C@H](CC(C)C)NC(=O)[C@@H](NC(=O)[C@@H](N)[C@@H](C)CC)C(C)C)C(C)C)[C@@H](C)CC)C(=O)N[C@@H](CCC(N)=O)C(=O)N[C@@H](CCCCN)C(=O)N[C@@H](CC(C)C)C(=O)N[C@@H](CC(C)C)C(=O)N[C@@H](CCCCN)C(=O)N[C@@H](CCC(N)=O)C(=O)N[C@@H](CCC(=O)O)C(=O)N[C@@H](CCCCN)C(=O)N[C@@H](CCC(N)=O)C(=O)N[C@@H](CCC(=O)O)C(=O)N[C@@H](CCCCN)C(=O)N[C@@H](CCC(=O)O)C(=O)N[C@@H](CCCCN)C(=O)N[C@@H](CCC(N)=O)C(=O)N[C@@H](CCC(N)=O)C(=O)N[C@@H](C)C(=O)N[C@@H](CCC(=O)O)C(=O)N[C@H](C(=O)N[C@@H](CC(N)=O)C(=O)N[C@@H](C)C(=O)N[C@@H](CCCCN)C(=O)N[C@H](C(=O)N[C@@H](CC(C)C)C(=O)N[C@@H](C)C(=O)N[C@@H](CCC(N)=O)C(=O)N[C@H](C(N)=O)C(C)C)[C@@H](C)CC)[C@@H](C)O)C(=O)O [SEQ ID NO: 4] (H-IVLSLDVPIGLK([γGlu-Palmitoyl])QKLLKQEKQEKEKQQAETNAKILAQV-NH2)

solubility at 1 h ([2]; pH 4.5, 100 mM acetate buffer): 8300 µg/mL (≈ 1710 µM)
solubility at 1 h ([2]; pH 7.4, 100 mM phosphate buffer): 7900 µg/mL (≈ 1630 µM)
EC50 [3]: 0.46 nM
% loss (chemical stability) ([4]; pH 4.5): 0%
% loss (chemical stability) ([4]; pH 7.4): 40%
CRF1/CRF2 ratio [5]: 134
SMILES: CC[C@H](C)[C@H](N)C(=O)N[C@H](C(=O)N[C@@H](CC(C)C)C(=O)N[C@@H](CO)C(=O)N[C@@H](CC(C)C)C(=O)N[C@@H](CC(=O)O)C(=O)N[C@@H](C(=O)N1CCC[C@H]1C(=O)N[C@H](C(=O)N[C@@H](CCCCN)C(=O)N[C@@H](CC(C)C)C(=O)N[C@@H](CCCCNC(=O)CC[C@H](NC(=O)CCCCCCCCCCCCCCC(=O)O)C(=O)O)C(=O)N[C@@H](CCC(N)=O)C(=O)N[C@H](C(=O)N[C@@H](CC(C)C)C(=O)N[C@@H](CC(C)C)C(=O)N[C@@H](CCCCN)C(=O)N[C@@H](CCC(N)=O)C(=O)N[C@@H](CCC(=O)O)C(=O)N[C@@H](CCCNC(=N)N)C(=O)N[C@@H](CCC(N)=O)C(=O)N[C@@H](CCCCN)C(=O)NC(C)(C)C(=O)N[C@@H](CCC(N)=O)C(=O)N[C@@H](CCCNC(=N)N)C(=O)N[C@@H](CCC(N)=O)C(=O)N[C@@H](CCC(N)=O)C(=O)N[C@@H](C)C(=O)N[C@@H](CCC(=O)O)C(=O)N[C@@H](CCCCN)C(=O)N[C@@H](CC(N)=O)C(=O)N[C@@H](CCCCN)C(=O)N[C@@H](CCC(N)=O)C(=O)N[C@H](C(=O)N[C@@H](CC(C)C)C(=O)N[C@@H](C)C(=O)N[C@@H](CCC(N)=O)C(=O)N[C@H](C(N)=O)C(C)C)[C@@H](C)CC)[C@@H](C)CC)[C@@H](C)CC)C(C)C)C(C)C [compound 188] (H-IVLSLD[dV]PIKLK([γGlu-C16 diacid])QILLKQERQK[Aib]QRQQAEKNKQILAQV-NH2; N-terminus assumed)
